Several values for one entry are separate records, joined by “and”; a condition that tells them apart may be missing. Equal entries are not always repeated.
How the values were obtained:
[1] = tested on: Achromobacter sp. strain LBAA; assay: Glyphosate degradation pathway in resting cells
Description: The glyphosate degradation pathway was characterized in resting cells of glyphosate-grown Achromobacter sp. strain LBAA according to the following procedure. Cells from a 100 ml culture of LBAA, grown in DF3S medium containing glucose, gluconate and citrate as carbon sources and with thiamine and Yeast Extract (0.01%) to supply trace requirements and with glyphosate at 0.2 mM as a phosphorous source, were harvested at a cell density of 200 Klett units, washed twice with 20 ml of DF3S medium and the equivalent of 20 ml of cells were resuspended in […] of the same medium containing [^14C]glyphosate (2.5 ml of 52 mCi/mmol, Amersham; CFA.745). The cell mix was incubated at 30° C. with shaking and 20 ml samples were withdrawn at various intervals. The samples were centrifuged to separate the cells from the broth supernatant. Both the supernatant and cell pellets were analyzed by HPLC.
Samples prepared in this way were analyzed by strong anion exchange (SAX) HPLC with radioisotope label detection to determine their levels of [^14C]-AMPA and N-acetyl-[^14C]-AMPA. Samples were injected using a Waters WISP autoinjector. Chromatographic profiles and quantitative data were collected using MACS2, Monsanto's automated chromatography data collection system. A Spherisorb S5 SAX, 250 mm×10 mm column, or an Alltech 5 micron, 250 mm×10 mm SAX column was used for the analyses. Solvents used were designated as solution A and solution B. Solution A contained 0.005M KH2PO4 adjusted to pH 2.0 with H3PO4 in 4% methanol. Solution B contained 0.10 M KH2PO4 adjusted to pH 2.0 with H3PO4 in 4% methanol. Each sample run time consisted of a step gradient program with an eluent flow rate of 3 ml per minute and a scintillation fluid (tradename ATOMFLOW, No. NEN-995 obtained from Packard Instruments) flow rate of 9 ml per minute. The HPLC solvent profile for distinguishing [^14C]-AMPA from N-acetyl-[^14C]-AMPA in each sample analyzed was represented by 100% solvent A at times zero through 5 minutes, then solvent B at 100% at time 5 minutes through 15 minutes, then 100% solvent A through 20 minutes at which time the column is prepared to receive another sample.
Cell pellets were first resuspended in DF3S medium made acidic by addition of 0.65N HCl, boiled for 5 minutes, then centrifuged briefly to provide a solution phase for HPLC analysis. Supernatants were treated similarly prior to HPLC analysis.
The GOX mediated glyphosate degradation pathway was elucidated further in a subsequent experiment where the metabolism of [^14C]AMPA was compared to that of [^14C]glyphosate as indicated above in resting cells harvested at 165 Klett units and resuspended at the equivalent of 15 ml cells per 100 ml DF3S medium. The samples were analyzed by HPLC and consisted of whole cultures acidified and treated as described above.

[2] = tested on: recombinant cotton line 4268 (GOX/PhnO); assay: [^14C]-glyphosate metabolism in cotton line 4268; type: in vivo, cotton (Gossypium hirsutum L.); conditions: GOX/PhnO Plants
Description: The metabolism of [^14C]-glyphosate in recombinant cotton lines 4268 (GOX/PhnO) and 3753 (EPSPS/GOX) was also studied. Plants in this study were treated as indicated above for cotton line 4416, by applying droplets of ROUNDUP ULTRA fortified with [^14C]-glyphosate to a single leaf on each plant at the three to four leaf stage. Treated leaves were harvested and rinsed with water, then ground and extracted, and extracts were analyzed by HPLC as described above for the presence of [^14C]-glyphosate, [^14C]-AMPA, and N-acetyl-[^14C]-AMPA. New growth, including the meristem and new leaves that emerged following application were also extracted and analyzed.

[3] = tested on: male gametes; conditions: under optimal conditions; cited from earlier work
[4] = tested on: Wheat immature embryos; assay: Wheat embryo germination assay; type: in vivo; conditions: for Germinating root length / Germinating shoot length: ten days
Description: Wheat immature embryos were exposed to different concentrations of AMPA and N-acetyl-AMPA in a wheat embryo germination assay. MMSO base media was prepared containing 40 grams per liter maltose, 2 grams per liter GELRITE™, MS salts, and vitamins. Salts, vitamins, and maltose were dissolved in 3500 ml water and the pH was adjusted to 5.8. 500 ml was dispensed into a separate bottle along with 1 gram of GELRITE™ and autoclaved for 17 minutes. After the medium had cooled to about 45° C., AMPA or N-acetyl-AMPA was added to a defined concentration. The mixture was poured into six square Sundae cups under sterile conditions and allowed to solidify.
Immature wheat embryos were isolated from twenty day old seedlings (after anther formation) and inoculated into each MMSO media. Each Sundae cup contained nine immature embryo's. Three separate plates were used for each concentration of AMPA (0, 0.1, 0.15, 0.2, 0.25, 0.3, and 1.0 mM) or N-acetyl-AMPA (0, 0.1, 0.3, 1.0, and 3.0 mM). Sundae cups were incubated for ten days and the length of roots and shoots were determined and compared.

[5] = tested on: E. coli GB993; assay: Cell growth in MOPS medium with AMPA; type: cell-based; conditions: 0.2 mM AMPA, growth period 54 hrs
Description: The phn operon is induced when E. coli is grown in media lacking or limited in a phosphate source. Therefore, E. coli GB993 was compared to the parental JM101 strain when grown in MOPS minimal media. GB993 and its mpu− parent strain, JM101, were grown under identical conditions, varying only the amount of phosphate available or supplemented with AMPA. 50 ml cultures were grown in duplicate in 250 ml sidearm-Erlenmeyer flasks with continuous shaking at 37° C. in MOPS medium (5 mls of 10×MOPS salts, 0.5 ml 1 mg/ml thiamin, 0.5 ml 20% glucose, to 50 mls with dH2O) containing 0.1 or 5 mM phosphate, or 0.1 mM phosphate supplemented with approximately 0.2 mM AMPA, pH 7.0. The cultures were generally grown to about 220 Klett units and the cells were pelleted by centrifugation, resuspended in 1.5 mls of 10 mM Tris/1 mM DTT, and lysed with two passes through a French press at […]. Lysates were centrifuged to remove debris and the supernatant passed through a G-50 column equilibrated with 50 mM Tris pH 7.0.

[6] = whole cultures exposed two hours

Molecule: N-phosphono-methyl-glycine [Glyphosate]
- glyphosate found within the cell ([1]; two hours incubation): About 3%
- material co-eluting with the methylamine standard, of initial radioactivity in the cell contents ([1]; two hours incubation): about 1.5%
- material co-eluting with the methylamine standard, of initial radioactivity in the supernatant ([1]; two hours incubation): about 5%
- radioactivity in the glyphosate peak remaining in the supernatant, of the initial levels ([1]; two hours incubation): about 33%
- label as AMPA [1, 6]: 12.5%
- label as glyphosate [1, 6]: 30%
- label in the 13.2 minute peak (N-acetyl-AMPA) [1, 6]: 30%
- label in the methylamine/N-acetyl-methylamine peak [1, 6]: 25%
- % [^14C] metabolite in Glyphosate Treated Leaf Extract: AMPA ([2]; listed as [^14C]-Glyphosate): 3.2% and 5.7% and 3.0% and 4.8%
- % [^14C] metabolite in Glyphosate Treated Leaf Extract: Glyphosate ([2]; listed as [^14C]-Glyphosate): 54.4% and 58.3% and 76.7% and 63.9%
- % [^14C] metabolite in New Growth Extract: AMPA ([2]; listed as [^14C]-Glyphosate): 1.2% and 1.0% and 1.5%
- % [^14C] metabolite in New Growth Extract: Glyphosate ([2]; listed as [^14C]-Glyphosate): 0.8% and 1.1% and 3.4%
- % [^14C] metabolite in New Growth Extract: N-Acetyl-AMPA ([2]; listed as [^14C]-Glyphosate): 94.7% and 91.0% and 89.9% and 91.5%
- % [^14C] metabolite in New Growth Extract: N-Acetyl-AMPA ([2]; listed as [^14C]-glyphosate): 90-95%
- male gametes killed [3]: about 95%

Molecule: NCP(=O)(O)O [AMPA, N-aminomethyl phosphonic acid]
- Germinating root length ([4]; 0.10 mM): 8.0 ± 2.0 cm
- Germinating shoot length ([4]; 0.10 mM): 11.7 ± 2.5 cm
- Germinating root length ([4]; 0.15 mM): 6.3 ± 1.7 cm
- Germinating shoot length ([4]; 0.15 mM): 11.3 ± 2.1 cm
- Germinating root length ([4]; 0.20 mM): 4.6 ± 2.1 cm
- Germinating shoot length ([4]; 0.20 mM): 9.2 ± 1.8 cm
- Germinating root length ([4]; 0.25 mM): 3.1 ± 1.6 cm
- Germinating shoot length ([4]; 0.25 mM): 8.5 ± 1.8 cm
- Germinating root length ([4]; 0.30 mM): 2.6 ± 1.6 cm
- Germinating shoot length ([4]; 0.30 mM): 6.6 ± 1.8 cm
- germination of immature embryos ([4]; 1.00 mM): eliminated the germination
- Germinating root length ([4]; 1.00 mM): 0.4 ± 0.1 cm
- Germinating shoot length ([4]; 1.00 mM): 0.9 ± 0.1 cm
- concentrations not substantially inhibitory to growth and elongation of immature embryos ([4]; in vivo): under 0.2 mM
- concentrations severely inhibitory to both shoot and root elongation ([4]; in vivo): above 0.2 mM
- label as AMPA [1, 6]: 59%
- label in the 13.2 minute peak (N-acetyl-AMPA) [1, 6]: 18%
- label in the methylamine/N-acetyl-methylamine peak [1, 6]: 15%
- Harvest Density [5]: 185 Klett Units
